Data from PubChem BioAssay (NCI).
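Where inhibition never reached the appropriate level, the endpoint shown equals the highest concentration tested. Otherwise, values were interpolated linearly from a five-concentration, 48-hour dose response in 96-well plates. Here, GI50 denotes the concentration required for 50% inhibition of growth. The concentration for full growth arrest is given as TGI.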

What was measured:
Assay in all cases: inhibition of tumour cell growth, NCI panel, 48 h
[1] = system: BT-549 breast
[2] = system: SK-MEL-28 melanoma
[3] = system: SNB-75 CNS
[4] = system: MOLT-4 leukemia
[5] = system: OVCAR-5 ovarian
[6] = system: SF-295 CNS
[7] = system: SK-OV-3 ovarian
[8] = system: HOP-62 NSCLC
[9] = system: SK-MEL-5 melanoma
[10] = system: IGROV1 ovarian
[11] = system: NCI-H522 lung
[12] = system: RXF 393 renal
[13] = system: RPMI-8226 leukemia
[14] = system: SW-620 colon
[15] = system: K-562 leukemia
[16] = system: A498 renal
[17] = system: TK-10 renal
[18] = system: OVCAR-4 ovarian
[19] = system: NCI/ADR-RES ovarian
[20] = system: NCI-H460 lung
[21] = system: OVCAR-3 ovarian
[22] = system: A549 NSCLC
[23] = system: KM12 colon
[24] = system: OVCAR-8 ovarian
[25] = system: SF-539 CNS
[26] = system: NCI-H226 lung
[27] = system: U251 CNS
[28] = system: HS 578T breast
[29] = system: SK-MEL-2 melanoma
[30] = system: MDA-MB-435
[31] = system: LOX IMVI melanoma
[32] = system: HOP-92 NSCLC
[33] = system: T-47D breast
[34] = system: M14 melanoma
[35] = system: PC-3 prostate
[36] = system: MCF7 breast
[37] = system: HL-60(TB) leukemia
[38] = system: UO-31 renal
[39] = system: HCT-15 colon
[40] = system: UACC-257 melanoma
[41] = system: CAKI-1 renal
[42] = system: EKVX NSCLC
[43] = system: MDA-MB-231 breast
[44] = system: 786-0 renal
[45] = system: DU-145 prostate
[46] = system: HCC-2998 colon
[47] = system: SF-268 CNS
[48] = system: CCRF-CEM leukemia
[49] = system: SNB-19 CNS
[50] = system: COLO 205 colon
[51] = system: HT29 colon
[52] = system: SR leukemia
[53] = system: NCI-H23 lung
[54] = system: HCT-116 colon
[55] = system: MALME-3M melanoma
[56] = system: SN12C renal
[57] = system: ACHN renal
[58] = system: UACC-62 melanoma

CN(C)C(=O)OC(Cn1cncn1)(Cn1cncn1)c1ccc(Cl)cc1Cl
TGI [1]: > 100 µM
TGI [2]: > 100 µM
TGI [3]: > 100 µM
TGI [4]: > 100 µM
TGI [5]: > 100 µM
TGI [6]: > 100 µM
TGI [7]: > 100 µM
TGI [8]: > 100 µM
TGI [9]: > 100 µM
TGI [10]: > 100 µM
TGI [11]: > 100 µM
TGI [12]: > 100 µM
TGI [13]: > 100 µM
TGI [14]: > 100 µM
TGI [15]: > 100 µM
TGI [16]: > 100 µM
TGI [17]: > 100 µM
TGI [18]: > 100 µM
TGI [19]: > 100 µM
TGI [20]: > 100 µM
TGI [21]: > 100 µM
TGI [22]: > 100 µM
TGI [23]: > 100 µM
TGI [24]: > 100 µM
TGI [25]: > 100 µM
TGI [26]: > 100 µM
TGI [27]: > 100 µM
TGI [28]: > 100 µM
TGI [29]: > 100 µM
TGI [30]: > 100 µM
TGI [31]: > 100 µM
TGI [32]: > 100 µM
TGI [33]: > 100 µM
TGI [34]: > 100 µM
TGI [35]: > 100 µM
TGI [36]: > 100 µM
TGI [37]: > 100 µM
TGI [38]: > 100 µM
TGI [39]: > 100 µM
TGI [40]: > 100 µM
TGI [41]: > 100 µM
TGI [42]: > 100 µM
TGI [43]: > 100 µM
TGI [44]: > 100 µM
TGI [45]: > 100 µM
TGI [46]: > 100 µM
TGI [47]: > 100 µM
TGI [48]: > 100 µM
TGI [49]: > 100 µM
TGI [50]: > 100 µM
TGI [51]: > 100 µM

OCC(O)c1nc2ccc3[nH]ncc3c2c2c1CCCC2 (centres undefined)
GI50 [1]: 0.934 µM
TGI [1]: 2.2 µM
GI50 [52]: 0.658 µM
TGI [52]: 4.52 µM
GI50 [2]: 1.22 µM
TGI [2]: 3.76 µM
GI50 [3]: 0.849 µM
TGI [3]: 1.6 µM
GI50 [4]: 1.56 µM
TGI [4]: > 50 µM
GI50 [5]: 1.53 µM
TGI [5]: > 50 µM
GI50 [6]: 1.62 µM
TGI [6]: > 50 µM
GI50 [7]: 2.23 µM
TGI [7]: > 50 µM
GI50 [8]: 1.53 µM
TGI [8]: > 50 µM
GI50 [9]: 1.02 µM
TGI [9]: 2.99 µM
GI50 [10]: 1.38 µM
TGI [10]: > 50 µM
GI50 [11]: 1.5 µM
TGI [11]: 9.87 µM
GI50 [12]: 0.612 µM
TGI [12]: 1.45 µM
GI50 [14]: 1.3 µM
TGI [14]: > 50 µM
GI50 [15]: 1.91 µM
TGI [15]: > 50 µM
GI50 [53]: 1.07 µM
TGI [53]: 2.46 µM
GI50 [54]: 1.24 µM
TGI [54]: > 50 µM
GI50 [16]: 0.876 µM
TGI [16]: 1.75 µM
GI50 [17]: 1.42 µM
TGI [17]: > 50 µM
GI50 [18]: 2.49 µM
TGI [18]: > 50 µM
GI50 [19]: 1.34 µM
TGI [19]: 4.51 µM
GI50 [20]: 1.49 µM
TGI [20]: 5.43 µM
GI50 [21]: 1.67 µM
TGI [21]: > 50 µM
GI50 [22]: 1.67 µM
TGI [22]: > 50 µM
GI50 [23]: 1.62 µM
TGI [23]: > 50 µM
GI50 [24]: 1.45 µM
TGI [24]: > 50 µM
GI50 [25]: 0.957 µM
TGI [25]: 2.4 µM
GI50 [26]: 0.971 µM
TGI [26]: 2.83 µM
GI50 [27]: 1.65 µM
TGI [27]: > 50 µM
GI50 [28]: 1.4 µM
TGI [28]: 4.26 µM
GI50 [29]: 1.18 µM
TGI [29]: 2.99 µM
GI50 [30]: 1.42 µM
TGI [30]: 4.31 µM
GI50 [55]: 1.67 µM
TGI [55]: 4.82 µM
GI50 [31]: 1.1 µM
TGI [31]: 3.85 µM
GI50 [33]: 1.6 µM
TGI [33]: > 50 µM
GI50 [34]: 1.17 µM
TGI [34]: 2.78 µM
GI50 [35]: 1.43 µM
TGI [35]: > 50 µM
GI50 [36]: 0.931 µM
TGI [36]: > 50 µM
GI50 [37]: 1.24 µM
TGI [37]: 3.14 µM
GI50 [38]: 1.55 µM
TGI [38]: > 50 µM
GI50 [39]: 1.5 µM
TGI [39]: > 50 µM
GI50 [40]: 1.8 µM
TGI [40]: > 50 µM
GI50 [41]: 0.971 µM
TGI [41]: > 50 µM
GI50 [42]: 1.3 µM
TGI [42]: 4.67 µM
GI50 [56]: 1.56 µM
TGI [56]: > 50 µM
GI50 [43]: 1.75 µM
TGI [43]: > 50 µM
GI50 [44]: 1.77 µM
TGI [44]: > 50 µM
GI50 [57]: 1.13 µM
TGI [57]: > 50 µM
GI50 [45]: 1.59 µM
TGI [45]: > 50 µM
GI50 [46]: 1.07 µM
TGI [46]: 2.89 µM
GI50 [47]: 1.22 µM
TGI [47]: 4.64 µM
GI50 [48]: 1.62 µM
TGI [48]: > 50 µM
GI50 [49]: 1.58 µM
TGI [49]: > 50 µM
GI50 [50]: 1.23 µM
TGI [50]: 3.43 µM
GI50 [58]: 0.96 µM
TGI [58]: 2.73 µM
GI50 [51]: 1.27 µM
TGI [51]: > 50 µM

C=C1C(=O)O[C@H]2[C@@H](O)[C@H](C)CCC[C@]3(C)O[C@H]3CC[C@@]3(C)O[C@@H]3C[C@@H]12
TGI [1]: 4.5 µM
TGI [52]: 5.99 µM
TGI [2]: 8.91 µM
TGI [3]: 15.2 µM
TGI [4]: 7.15 µM
TGI [5]: 12.5 µM
TGI [6]: 15.6 µM
TGI [7]: 25 µM
TGI [8]: 14.3 µM
TGI [9]: 10.5 µM
TGI [10]: 12.1 µM
TGI [11]: 2.85 µM
TGI [12]: 7.13 µM
TGI [13]: 50 µM
TGI [14]: 5.05 µM
TGI [15]: 3.25 µM
TGI [53]: 13 µM
TGI [54]: 6.52 µM
TGI [16]: 14.4 µM
TGI [18]: 9.85 µM
TGI [19]: 19 µM
TGI [21]: 10.6 µM
TGI [22]: 18.3 µM
TGI [23]: 15.3 µM
TGI [24]: 13.4 µM
TGI [25]: 13.3 µM
TGI [26]: 14.5 µM
TGI [27]: 15.7 µM
TGI [28]: 42 µM
TGI [29]: 16.6 µM
TGI [30]: 10 µM
TGI [33]: 19.9 µM
TGI [34]: 12.4 µM
TGI [35]: 14.5 µM
TGI [36]: 7.87 µM
TGI [37]: 2.03 µM
TGI [38]: 12.4 µM
TGI [39]: 4.74 µM
TGI [41]: 13 µM
TGI [42]: 11.3 µM
TGI [56]: 13.2 µM
TGI [43]: 10.8 µM
TGI [44]: 12.5 µM
TGI [45]: 12.9 µM
TGI [46]: 10.9 µM
TGI [47]: 14.9 µM
TGI [48]: 5.22 µM
TGI [49]: 27.7 µM
TGI [50]: 10.3 µM
TGI [58]: 8.8 µM
TGI [51]: 12.1 µM
